Assays:
Fkbp51 = tested on: Fkbp51; parameters: species or system mice; conditions: mouse, in vivo
RABV [1] = tested on: RABV; parameters: species or system mice; conditions: mouse, in vivo
[2] = tested on: STAT3, STAT3-P, ERK1/2, phosphorylated-ERK1/2 (Thr202/Tyr204); parameters: species or system mice; conditions: mouse, in vivo
[3] = tested on: IL-6, CXCL10, IFN-γ and TNFα; parameters: species or system mice; conditions: mouse, in vivo
RABV [4] = tested on: RABV; parameters: species or system mice; conditions: mouse, in vivo; remark: listed apart in the source
[5] = tested on: thymocytes and splenocytes; parameters: species or system mice; conditions: mouse, in vivo
splenocytes subsets = tested on: splenocytes subsets; parameters: species or system mice; conditions: mouse, in vivo
RABV CVS-NIV = tested on: RABV CVS-NIV; parameters: species or system C57BL/6J mice; conditions: mouse, in vivo
[6] = mouse, in vivo
nNOS = tested on: nNOS; parameters: species or system mice; conditions: mouse, in vivo

CNC1(C)C2CCC(C2)C1(C)C (stereo not drawn) [mecamylamine, N,2,3,3-Tetramethylbicyclo[2.2.1] heptan-2 amine]
transcription of the glucocorticoid-inducible gene Fkbp51 (Fkbp51): no effect | effect on RABV specific neutralizing antibodies (RABV [1]): no effect | expression and phosphorylation of STAT3 and ERK1/2 in the brain [2]: reduces expression and phosphorylation of STAT3 and ERK1/2 to levels similar to those observed in the non-infected brain | IFN-γ and TNFα transcription in the spinal cord [3]: slowed-down | IL6 or CXCL10 kinetic in the spinal cord [3]: no effect | cytokines expression at transcriptional level (IL-6, CXCL10, IFN-γ, TNFα) in the brain [3]: did not modify significantly | inflammatory cytokines expression in the liver [3]: No difference | RABV N protein transcripts among survivors (RABV [4]): less viral transcripts than the mock-treated animals | number of splenocytes [5]: increased the number of splenocytes | cellularity of the spleen (number of splenocytes) ([5]; ip, 2 mg/kg): protects cellularity of the spleen | number of thymocytes (RABV-mediated drop) ([5]; ip, 2 mg/kg): no effect on the drop of thymocytes | main subsets of spleen cells (TCRαβ, CMH class II, CD4, CD8, plasmocytes expressing IgG) (splenocytes subsets): prevents the RABV-mediated disappearance | numbers of CD4 T cells expressing CD25 and numbers of CD3 expressing CD69 (splenocytes subsets): restored | RABV pathogenesis (RABV CVS-NIV): did not modify RABV pathogenesis | clinical scores (RABV CVS-NIV): decreases the severity of the clinical scores | weight loss (RABV CVS-NIV): interrupted the weight loss | side effects such as weight loss or behavior modification [6]: does not induced obvious side effects | nNOS transcription in the brain (nNOS): block the nNOS decrease

From EP2535046A1 (priority 2011, dated 2012)
